The values that follow come from patent US11065202B2, “Multi-component nanochains” (CASE WESTERN RESERVE UNIVERSITY, priority 2011, dated 2021).

Molecules are shown by their SMILES.

The subject of assay [1] is 13762 MAT B III tumor model. The assay can be described thus: Tumor growth and survival study. It counts as in vivo, rats. Conditions: single treatment 0.5 mg/kg DOX, without RF. From the text:
The rat tumor model was established by a subcutaneous injection of 1×10^6 13762 MAT B III cells into the right flank of female Fisher rats. Mouse tumors were generated orthotopically in female BALB/c mice by injection of 0.5×10^6 4 T1 cells into the inguinalmammary fat pad. Once the appropriate tumor size was established (diameter ˜0.5 cm), the animals were used in the in vivo studies. Each cell line required different lag times to produce a tumor lesion of about 0.5 cm in size (5 and 8 days for the MAT B III and 4T1 model, respectively). Based on our prior experience, we chose this tumor size as the starting point of the animal studies, since the primary tumor mass is sufficiently large to present angiogenic, necrotic and invasive areas, and therefore may be more informative and relevant to human disease.
Once the appropriate tumor sizes were established (diameter ˜0.5 cm), the rat tumor model was IV injected with DOX-NC at a dose of 0.5 mg/kg DOX. After 24 hours from injection, animals were exposed to the RF field operated as described previously. Following the same dose and schedule, control groups included animals treated with DOX-NC (but no RF), only RF, liposomal DOX, liposomal DOX with RF, free DOX, and saline. […] The tumor growth was monitored every day using caliper measurements. […] Time of death was determined to be the following day.

Assay [2] concerns MAT B III tumors. Kind of assay: Histological evaluation of apoptosis (TUNEL), rat model. It counts as in vivo, rats. Conditions: 5 mg/kg, IV. As for the experimental part:
The rat MAT B III and the mouse 4T1 models were used in the histological studies. Animals treated with DOX-NC were exposed to the RF field 24 hours post-injection. After 24 hours from the application of the RF field, the animals were anesthetized with an IP injection of ketamine/xylazine and transcardially perfused with heparinized PBS followed by 4% paraformaldehyde in PBS. Controls included animals treated with DOX-NC (no RF), 35-nm liposomal DOX (with RF), 100-nm liposomal DOX (with RF), free DOX, RF alone and saline. The tumors were explanted and post-fixed overnight in 4% paraformaldehyde in PBS. The fixed tumors were soaked in 30% sucrose (w/v) in PBS at 4° C. for cryosectioning. Serial sections of 12 μm thickness were collected using a cryostat (Leica CM 300).
To visualize the tumor microvasculature, the tissue slices were immunohistochemically stained for the specific endothelial antigen CD31 (BD Biosciences, Pharmingen). The tissues were also stained with the nuclear stain DAPI. […] Direct fluorescence (red) imaging of tumor sections were performed for imaging DOX. Apoptosis was detected using a TUNEL assay (Promega). […] The total number of cells was counted based on the nuclear stain (DAPI) in multiple histological sections per tumor (minimum 20), whereas apoptotic cells were quantified based on TUNEL-stained nuclei.

Consider `COc1cccc2c1C(=O)c1c(O)c3c(c(O)c1C2=O)C[C@@](O)(C(=O)CO)C[C@@H]3O[C@H]1C[C@H](N)[C@H](O)[C@H](C)O1` [free DOX, doxorubicin], for which the tumor growth entry in assay [1] was “failed to produce any therapeutic benefits”. Moreover, the “apoptotic cells in tumor (visual inspection)” value in assay [2] is listed as “substantial number of apoptotic cells”.
